This experiment has as its target T1, human B1 (Homo sapiens, UniProt P46663).
T1 construct: host or cells: CHO-K1
T1 sequence (P46663 1-353): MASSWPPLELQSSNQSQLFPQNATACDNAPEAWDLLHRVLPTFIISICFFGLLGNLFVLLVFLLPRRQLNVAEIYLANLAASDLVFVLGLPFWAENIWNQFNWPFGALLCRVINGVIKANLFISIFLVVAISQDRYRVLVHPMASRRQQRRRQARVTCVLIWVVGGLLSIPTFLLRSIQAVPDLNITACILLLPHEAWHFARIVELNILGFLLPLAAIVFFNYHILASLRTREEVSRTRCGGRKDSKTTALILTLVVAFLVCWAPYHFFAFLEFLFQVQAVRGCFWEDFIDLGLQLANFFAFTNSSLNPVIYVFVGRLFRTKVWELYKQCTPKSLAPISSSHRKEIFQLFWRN
The experiment is described as follows: Calcium flux assay for Bradykinin B1 antagonist, CHO-K1 cell line expressing human B1. Conditions: CHO-K1 cells expressing human B1, agonist Lys-(Des-Arg)-Bradykinin, read-out: Potency (IC50 value against human B1). Format: cell-based. On the procedure: Calcium Flux Assay for Bradykinin B1 Antagonist
The potency to inhibit the Bradykinin B1 receptors was determined for the compounds of this invention in a cell-based fluorescent calcium-mobilization assay. The assay measures the ability of test compounds to inhibit Bradykinin B1 receptor agonist-induced increase of intracellular free Ca^2+ in cell lines expressing B1.
The change of the intracellular Ca^2+ concentration is monitored with a specifically designed fluorescent plate reader (FlexStation, Molecular Devices).
CHO-K1 cell line expressing human B1 was purchased from Euroscreen (Gosselies, Belgium, with reference name hBl-D1). CHO-K1 cell lines expressing rat B1 or mouse B1 were established in the following way: the full-length receptor-coding cDNA clones were obtained by PCR performed on rat or mouse brain cDNAs. The respective cDNAs were cloned into an expression vector under the control of a CMV promotor. The resultant plasmids were introduced into CHO-K1 cells with liposome technology (FuGENE; Roche Diagnostics, Basel), according to the standard protocols described by the manufacturer. Cell lines expressing a Bradykinin receptor were selected in the culture medium containing 400 μg/ml G418 (Sigma). From selected cell populations, monoclonal cell lines were isolated by single cell cloning. The expression of Bradykinin receptors was confirmed by immunofluorescence staining of the cells, as well as by calcium flux assay.
Human B1-expressing cells were grown in Nutrient Mixture Ham's F12 (Sigma) containing 10% Foetal bovine serum (Sigma) and 400 μg/ml G418 (Sigma), 5 μg/ml puromycim (Sigma); Rat B1 and mouse B1-expressing cells were grown in DMEM/F12 medium (Sigma) containing 10% Foetal bovine serum (Sigma) and 400 μg/ml G418 (Sigma).
For the calcium flux assay, 80% confluent cells were detached from the culture vessels with Versene (Gibco; for human B1 cell-line) or with 1× trypsin-EDTA solution (Sigma; for rodent B1 cell-line), and seeded into 384-well plates (Cell binding Surface; Corning, N.Y.; #3683) at a density of 15,000 cells per well for human B1 or at a density of 20,000 cells per well for rodent B1. Cells were seeded in a volume of 50 μl in medium without antibiotics and incubated overnight in a humidified atmosphere with 5% CO2 at 37° C. The following day, the medium was replaced with 20 μl of 5 μM Fluo-4AM dye (Molecular Probes) in assay buffer (2.5 mM probenicid, 1 mg/ml pluronic acid, 0.1% BSA, 135 mM NaCl, 5 mM KCl, 1.8 mM CaCl, 1 mM MgCl2, 10 mM HEPES, 5.6 mM glucose, 0.05% gelatine, pH 7.4). The calcium indicator loaded cells were incubated at 37° C. for 2 hrs. Extracellular dye was then removed and each well was filled with 45 μl of assay buffer. Cell plates were kept in dark until used. Test compounds were assayed at 8 concentrations in triplicate. Serial 10-fold dilutions in 100% DMSO were made at a 100-times higher concentration than the final concentration, and then diluted 1:10 in assay buffer. 5 μl of each diluted compound was added to the well of cell plates (yielding final concentration with 1% DMSO), and incubated for 30 min at 25° C. before the addition of B1 agonist on the FlexStation.
The addition of agonist 20 μl per well to the assay plate was carried out on the FlexStation while continuously monitoring Ca^2+-dependent fluorescence at 538 nm. The integrated values, normalized with the background fluorescence, were plotted against the logarithm of the antagonist concentrations.
(Calcium assays in cells follow changes in intracellular calcium, usually with a dye or a luminescent sensor.)

In general, IC50 refers to the midpoint of a concentration-inhibition curve.

Take `COc1cc(C)c(S(=O)(=O)N(C)Cc2cc(C(=O)N(C)Cc3ccc(-c4nccn4C)cc3)co2)c(C)c1` [Ex 43, 5-({[(4-methoxy-2,6-dimethylphenyl)sulfonyl](methyl)amino}methyl)-N-methyl-N-[4-(1-methyl-1H-imidazol-2-yl)benzyl]furan-3-carboxamide]: the IC50 was in the range of 100 to 1000 nM.
On to `COc1cc(C)c(S(=O)(=O)N(C)Cc2cc(C(=O)NCCc3ccc(Nc4nccc(N)n4)cc3)co2)c(C)c1` [Ex 44, N-(2-{4-[(4-aminopyrimidin-2-yl)amino]phenyl}ethyl)-5-({[(4-methoxy-2,6-dimethylphenyl)sulfonyl](methyl)amino}methyl)furan-3-carboxamide], for which the IC50 lay within 100 to 1000 nM.
Next, `COc1cc(C)c(S(=O)(=O)N(C)Cc2cc(C(=O)NCCc3ccc(Nc4ccnc(N)n4)cc3)co2)c(C)c1` [Ex 45, N-(2-{4-[(2-aminopyrimidin-4-yl)amino]phenyl}ethyl)-5-({[(4-methoxy-2,6-dimethylphenyl)sulfonyl](methyl)amino}methyl)furan-3-carboxamide]: 100 to 1000 nM.
Under `COc1cc(C)c(S(=O)(=O)N(C)Cc2cc(C(=O)NCCc3ccc(CN4CCCC4)cc3)co2)c(C)c1` [Ex 46, 5-({[(4-methoxy-2,6-dimethylphenyl)sulfonyl](methyl)amino}methyl)-N-{2-[4-(pyrrolidin-1-ylmethyl)phenyl]ethyl}furan-3-carboxamide] stands 100 to 1000 nM; under `CCN(Cc1cc(C(=O)N(C)CCc2ccc(C3=NCCN3)cc2)co1)S(=O)(=O)c1c(C)cc(OC)cc1C` [Ex 47, N-{2-[4-(4,5-dihydro-1H-imidazol-2-yl)phenyl]ethyl}-5-({ethyl[(4-methoxy-2,6-dimethylphenyl)sulfonyl]amino}methyl)-N-methylfuran-3-carboxamide], below 10 nM; under `COc1cc(C)c(S(=O)(=O)N(Cc2cc(C(=O)N(C)CCc3ccc(C4=NCCN4)cc3)co2)C(C)C)c(C)c1` [Ex 48, N-{2-[4-(4,5-dihydro-1H-imidazol-2-yl)phenyl]ethyl}-5-({[(4-methoxy-2,6-dimethylphenyl)sulfonyl](1-methylethyl)amino}methyl)-N-methylfuran-3-carboxamide], 10 to 100 nM.
Next, `COc1cc(C)c(S(=O)(=O)N(Cc2cc(C(=O)NCCc3ccc(C4=NCCN4)cc3)co2)CC2CC2)c(C)c1` [Ex 49, 5-({(Cyclopropylmethyl)[(4-methoxy-2,6-dimethylphenyl)sulfonyl]amino}methyl)-N-{2-[4-(4,5-dihydro-1H-imidazol-2-yl)phenyl]ethyl}furan-3-carboxamide]: 10 to 100 nM; `COc1cc(C)c(S(=O)(=O)N(Cc2cc(C(=O)N(C)Cc3ccc(C4=NCCN4)cc3)co2)c2ccccc2)c(C)c1` [Ex 50, N-[4-(4,5-dihydro-1H-imidazol-2-yl)benzyl]-5-({[(4-methoxy-2,6-dimethylphenyl)sulfonyl] (phenyl)amino}methyl)-N-methylfuran-3-carboxamide]: 100 to 1000 nM.
As to `COc1cc(C)c(S(=O)(=O)N(Cc2cc(C(=O)N(C)CCc3ccc(C4=NCCN4)cc3)co2)C2CCC2)c(C)c1` [Ex 51, 5-({Cyclobutyl[(4-methoxy-2,6-dimethylphenyl)sulfonyl]amino}methyl)-N-{2-[4-(4,5-dihydro-1H-imidazol-2-yl)phenyl]ethyl}-N-methylfuran-3-carboxamide], the IC50 is below 10 nM.
For `COc1cc(C)c(S(=O)(=O)N(Cc2cc(C(=O)NCCc3ccc(C4=NCCN4)cc3)co2)C2CC2)c(C)c1` [Ex 52, 5-({Cyclopropyl[(4-methoxy-2,6-dimethylphenyl)sulfonyl]amino}methyl)-N-{2-[4-(4,5-dihydro-1H-imidazol-2-yl)phenyl]ethyl}furan-3-carboxamide], the IC50 was below 10 nM.
Under `COc1cc(C)c(S(=O)(=O)N(Cc2cc(C(=O)N3CCN(C4CCN(C)CC4)CC3)co2)C2CC2)c(C)c1` [Ex 53, N-cyclopropyl-4-methoxy-2,6-dimethyl-N-[(4-{[4-(1-methylpiperidin-4-yl)piperazin-1-yl]carbonyl}furan-2-yl)methyl]benzenesulfonamide] stands 100 to 1000 nM.
Next, `COc1cc(C)c(S(=O)(=O)N(Cc2cc(C(=O)NCc3cccc(CN4CCCC4)c3)co2)C2CC2)c(C)c1` [Ex 54, 5-({Cyclopropyl[(4-methoxy-2,6-dimethylphenyl)sulfonyl]amino}methyl)-N-[3-(pyrrolidin-1-ylmethyl)benzyl]furan-3-carboxamide]: 10 to 100 nM.
Under `COc1cc(C)c(S(=O)(=O)N(Cc2cc(C(=O)N(C)Cc3cccc(CN4CCCC4)c3)co2)C2CC2)c(C)c1` [Ex 55, 5-({Cyclopropyl[(4-methoxy-2,6-dimethylphenyl)sulfonyl]amino}methyl)-N-methyl-N-[3-(pyrrolidin-1-ylmethyl)benzyl]furan-3-carboxamide] stands 10 to 100 nM; under `COc1cc(C)c(S(=O)(=O)N(Cc2cc(C(=O)NCc3ccc(CN4CCCC4)cc3)co2)C2CC2)c(C)c1` [Ex 56, 5-({Cyclopropyl[(4-methoxy-2,6-dimethylphenyl)sulfonyl]amino}methyl)-N-[4-(pyrrolidin-1-ylmethyl)benzyl]furan-3-carboxamide], 10 to 100 nM.
For the compound `COc1cc(C)c(S(=O)(=O)N(Cc2cc(C(=O)N(C)Cc3ccc(CN4CCCC4)cc3)co2)C2CC2)c(C)c1` [Ex 57, 5-({Cyclopropyl[(4-methoxy-2,6-dimethylphenyl)sulfonyl]amino}methyl)-N-methyl-N-[4-(pyrrolidin-1-ylmethyl)benzyl]furan-3-carboxamide], the IC50 fell in the range of 10 to 100 nM.
Next, `COc1cc(C)c(S(=O)(=O)N(C)Cc2cc(C(=O)N(C)Cc3ccc(C4=NCCN4)cc3)c(C)o2)c(C)c1` [Ex 58, N-[4-(4,5-dihydro-1H-imidazol-2-yl)benzyl]-5-({[(4-methoxy-2,6-dimethylphenyl)sulfonyl](methyl)amino}methyl)-N,2-dimethylfuran-3-carboxamide]: 10 to 100 nM; `COc1cc(C)c(S(=O)(=O)N(C)Cc2cc(C(=O)N(C)CCc3ccc(C4=NCCN4)cc3)c(C)o2)c(C)c1` [Ex 59, N-{2-[4-(4,5-dihydro-1H-imidazol-2-yl)phenyl]ethyl}-5-({[(4-methoxy-2,6-dimethylphenyl)sulfonyl](methyl)amino}methyl)-N,2-dimethylfuran-3-carboxamide]: 100 to 1000 nM.
On to `COc1cc(C)c(S(=O)(=O)N(C)Cc2cc(C(=O)NCCc3ccc(C4=NCCN4)cc3)c(C)o2)c(C)c1` [Ex 61, N-{2-[4-(4,5-dihydro-1H-imidazol-2-yl)phenyl]ethyl}-5-({[(4-methoxy-2,6-dimethylphenyl)sulfonyl](methyl)amino}methyl)-2-methylfuran-3-carboxamide], for which the IC50 is 10 to 100 nM.
With `COc1cc(C)c(S(=O)(=O)N(C)Cc2ccc(C(=O)N3CCN(C4CCN(C)CC4)CC3)o2)c(C)c1` [Ex 62, 4-Methoxy-N,2,6-trimethyl-N-[(5-{[4-(1-methylpiperidin-4-yl)piperazin-1-yl]carbonyl}furan-2-yl)methyl]benzenesulfonamide], the IC50 lay in the range of 100 to 1000 nM.
Under `COc1cc(C)c(S(=O)(=O)N(C)Cc2nsc(C(=O)NCCc3ccc(C4=NCCN4)cc3)n2)c(C)c1` [Ex 63, N-{2-[4-(4,5-dihydro-1H-imidazol-2-yl)phenyl]ethyl}-3-({[(4-methoxy-2,6-dimethylphenyl)sulfonyl](methyl)amino}methyl)-1,2,4-thiadiazole-5-carboxamide] stands below 10 nM.

Values taken from US8623859B2, “Bradykinin B1 antagonists” (Evotec AG, priority 2008, dated 2014).
